Data on 20 compounds can be found in patent publication US8940898B2, “Piperidinyl alkyne orexin receptor antagonists” (Merck Sharp & Dohme Corp., priority 2011, dated 2015).

One experiment has as its target T1, human orexin-2 receptor (Homo sapiens, UniProt O43614).
T1 construct: expressed in transfected cells; host or cells: CHO cells (membranes)
T1 sequence (O43614 1-444): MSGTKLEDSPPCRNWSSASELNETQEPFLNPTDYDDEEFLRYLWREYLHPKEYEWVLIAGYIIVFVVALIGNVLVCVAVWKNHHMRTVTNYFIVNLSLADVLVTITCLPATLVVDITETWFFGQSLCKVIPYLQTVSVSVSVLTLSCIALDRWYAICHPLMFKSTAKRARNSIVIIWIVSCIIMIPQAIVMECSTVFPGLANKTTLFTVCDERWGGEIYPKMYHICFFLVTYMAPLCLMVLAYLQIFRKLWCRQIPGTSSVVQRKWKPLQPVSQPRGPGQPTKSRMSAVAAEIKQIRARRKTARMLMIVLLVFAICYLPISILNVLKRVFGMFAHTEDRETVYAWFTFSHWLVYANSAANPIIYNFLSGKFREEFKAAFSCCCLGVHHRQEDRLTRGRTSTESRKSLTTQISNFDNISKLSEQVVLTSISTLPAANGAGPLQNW
Description: radioligand binding assay, OX2 receptor (hOX2 Bind hKi). As to conditions: membranes from CHO cells expressing the OX2 receptor. The method, then: The utility of the compounds in accordance with the present invention as orexin receptor OX1R and/or OX2R antagonists may be readily determined without undue experimentation by methodology well known in the art, including the “FLIPR Ca^2+ Flux Assay” (Okumura et al., Biochem. Biophys. Res. Comm. 280:976-981, 2001). In a typical experiment the OX1 and OX2 receptor antagonistic activity of the compounds of the present invention was determined in accordance with the following experimental method. For intracellular calcium measurements, Chinese hamster ovary (CHO) cells expressing the rat orexin-1 receptor or the human orexin-2 receptor, are grown in Iscove's modified DMEM containing 2 mM L-glutamine, […], 1% hypoxanthine-thymidine supplement, 100 U/ml penicillin, 100 μg/ml streptomycin and 10% heat-inactivated fetal calf serum (FCS). The cells are seeded at 20,000 cells/well into Becton-Dickinson black 384-well clear bottom sterile plates coated with poly-D-lysine. All reagents were from GIBCO-Invitrogen Corp. The seeded plates are incubated overnight at 37° C. and 5% CO2. Ala-6,12 human orexin-A as the agonist is prepared as a 1 mM stock solution in 1% bovine serum albumin (BSA) and diluted in assay buffer (HBSS containing 20 mM HEPES, 0.1% BSA and 2.5 mM probenecid, pH7.4) for use in the assay at a final concentration of 70 pM. Test compounds are prepared as 10 mM stock solution in DMSO, then diluted in 384-well plates, first in DMSO, then assay buffer. On the day of the assay, cells are washed 3 times with 100 μl assay buffer and then incubated for 60 min (37° C., 5% CO2) in 60 μl assay buffer containing 1 μM Fluo-4AM ester, 0.02% pluronic acid, and 1% BSA. The dye loading solution is then aspirated and cells are washed 3 times with 100 μl assay buffer. 30 μl of that same buffer is left in each well. Within the Fluorescent Imaging Plate Reader (FLIPR, Molecular Devices), test compounds are added to the plate in a volume of 25 μl, incubated for 5 min and finally 25 μl of agonist is added. Fluorescence is measured for each well at 1 second intervals for 5 minutes and the height of each fluorescence peak is compared to the height of the fluorescence peak induced by […] Ala-6,12 orexin-A with buffer in place of antagonist. For each antagonist, IC50 value (the concentration of compound needed to inhibit 50% of the agonist response) is determined. Alternatively, compound potency can be assessed by a radioligand binding assay (described in Bergman et. al. Bioorg. Med. Chem. Lett. 2008, 18, 1425-1430) in which the inhibition constant (Ki) is determined in membranes prepared from CHO cells expressing either the OX1 or OX2 receptor. The intrinsic orexin receptor antagonist activity of a compound which may be used in the present invention may be determined by these assays. The following tables show representative data for the compounds of the Examples as orexin receptor antagonists as determined by the foregoing assays wherein the hOX2 Ki is a measure of the ability of the test compound to inhibit the action of the human orexin-2 receptor and the hOX1R is a measure of the ability of the test compound to inhibit the action of the rat orexin-1 receptor.

A further experiment addresses T2, hOX1 (orexin-1 receptor) (Homo sapiens, UniProt O43613).
T2 construct: expressed in transfected cells; host or cells: CHO cells (membranes)
T2 sequence (O43613 1-425): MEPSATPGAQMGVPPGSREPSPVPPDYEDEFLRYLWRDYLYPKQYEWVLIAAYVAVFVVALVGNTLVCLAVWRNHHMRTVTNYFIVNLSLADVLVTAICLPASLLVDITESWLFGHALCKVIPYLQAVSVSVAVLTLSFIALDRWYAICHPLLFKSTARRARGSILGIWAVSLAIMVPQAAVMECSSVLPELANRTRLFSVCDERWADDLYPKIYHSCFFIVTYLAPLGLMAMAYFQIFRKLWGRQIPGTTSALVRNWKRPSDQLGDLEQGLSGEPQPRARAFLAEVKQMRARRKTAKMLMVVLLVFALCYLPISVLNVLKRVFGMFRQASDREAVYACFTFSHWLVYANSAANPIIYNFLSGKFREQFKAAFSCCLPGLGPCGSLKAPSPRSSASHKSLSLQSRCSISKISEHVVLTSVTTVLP
The experiment can be described thus: radioligand binding assay, OX1 receptor (hOX1 Bind hKi). Particulars: membranes from CHO cells expressing the OX1 receptor.

Each structure is given as a SMILES string. Where only a bound is given, the exact number is not on record here.

What is called Ki is a measure of affinity in units of concentration, obtained from inhibition or displacement. Read a high Ki as weaker binding. For `C[C@@H]1CCC(C#Cc2ccccn2)CN1C(=O)c1ccccc1-n1nccn1` (stereo in doubt) [Example 1, [(2R,5R)-2-Methyl-5-(pyridin-2-ylethynyl)piperidin-1-yl][2-(2H-1,2,3-triazol-2-yl)phenyl]methanone], the Ki worked out at 11 nM at human orexin-2 receptor and 27 nM at hOX1 (orexin-1 receptor).
On the same counts, the results for `C[C@@H]1CC[C@@H](C#Cc2ccncc2)CN1C(=O)c1ccccc1-n1nccn1` [Example 2, 4-{[(3S,6R)-6-methyl-1-{[2-(2H-1,2,3-triazol-2-yl)phenyl]carbonyl}piperidin-3-yl]ethynyl}pyridine] are 41 nM and 107 nM.
On the same counts, the results for `C[C@@H]1CC[C@@H](C#Cc2cccnc2)CN1C(=O)c1ccccc1-n1nccn1` [Example 3, 3-{[(3S,6R)-6-methyl-1-{[2-(2H-1,2,3-triazol-2-yl)phenyl]carbonyl}piperidin-3-yl]ethynyl}pyridine] are 7 nM and 26 nM.
On the same counts, the results for `C[C@@H]1CC[C@@H](C#Cc2cccnc2O)CN1C(=O)c1ccccc1-n1nccn1` [Example 4, 3-{[(3S,6R)-6-methyl-1-{[2-(2H-1,2,3-triazol-2-yl)phenyl]carbonyl}piperidin-3-yl]ethynyl}pyridin-2-ol] are 24 nM and 24 nM.
With `C[C@@H]1CC[C@@H](C#Cc2cnccc2O)CN1C(=O)c1ccccc1-n1nccn1` [Example 5, 3-{[(3S,6R)-6-methyl-1-{[2-(2H-1,2,3-triazol-2-yl)phenyl]carbonyl}piperidin-3-yl]ethynyl}pyridin-4-ol], the Ki was 7.5 nM at human orexin-2 receptor and 866 nM at hOX1 (orexin-1 receptor).
The like results for `C[C@@H]1CC[C@@H](C#Cc2ccccc2CO)CN1C(=O)c1ccccc1-n1nccn1` [Example 6, (2-{[(3S,6R)-6-methyl-1-{[2-(2H-1,2,3-triazol-2-yl)phenyl]carbonyl}piperidin-3-yl]ethynyl}phenyl)methanol] were, in that order, 0.53 nM and 0.56 nM.
Regarding `C[C@@H]1CC[C@@H](C#Cc2ccc(CO)nc2)CN1C(=O)c1ccccc1-n1nccn1` [Example 7, (5-{[(3S,6R)-6-methyl-1-{[2-(2H-1,2,3-triazol-2-yl)phenyl]carbonyl}piperidin-3-yl]ethynyl}pyridin-2-yl)methanol], the Ki at human orexin-2 receptor was about 150 nM; on hOX1 (orexin-1 receptor), 339 nM.
The like results for `C[C@@H]1CC[C@@H](C#Cc2ccc(CO)cn2)CN1C(=O)c1ccccc1-n1nccn1` [Example 8, (6-{[(3S,6R)-6-methyl-1-{[2-(2H-1,2,3-triazol-2-yl)phenyl]carbonyl}piperidin-3-yl]ethynyl}pyridin-3-yl)methanol] were, in that order, 130 nM and 211 nM.
Turning to `C[C@@H]1CC[C@@H](C#Cc2cccc(CO)n2)CN1C(=O)c1ccccc1-n1nccn1` [Example 9, (6-{[(3S,6R)-6-methyl-1-{[2-(2H-1,2,3-triazol-2-yl)phenyl]carbonyl}piperidin-3-yl]ethynyl}pyridin-2-yl)methanol], the Ki on human orexin-2 receptor stood at 5.6 nM; at hOX1 (orexin-1 receptor), 18 nM.
The like results for `C[C@@H]1CC[C@@H](C#Cc2cc(CO)ccn2)CN1C(=O)c1ccccc1-n1nccn1` [Example 10, (2-{[(3S,6R)-6-methyl-1-{[2-(2H-1,2,3-triazol-2-yl)phenyl]carbonyl}piperidin-3-yl]ethynyl}pyridin-4-yl)methanol] were, in that order, 42 nM and 76 nM.
The like results for `C[C@@H]1CC[C@@H](C#Cc2cncc(CO)c2)CN1C(=O)c1ccccc1-n1nccn1` [Example 11, (5-{[(3S,6R)-6-methyl-1-{[2-(2H-1,2,3-triazol-2-yl)phenyl]carbonyl}piperidin-3-yl]ethynyl}pyridin-3-yl)methanol] were, in that order, 32 nM and 108 nM.
As to `C[C@@H]1CC[C@@H](C#Cc2ccnc(CO)c2)CN1C(=O)c1ccccc1-n1nccn1` [Example 12, (4-{[(3S,6R)-6-methyl-1-{[2-(2H-1,2,3-triazol-2-yl)phenyl]carbonyl}piperidin-3-yl]ethynyl}pyridin-2-yl)methanol], the Ki at human orexin-2 receptor was 25 nM; on hOX1 (orexin-1 receptor), 75 nM.
The like results for `Cc1ccc(-n2nccn2)c(C(=O)N2CCCCC2C#Cc2ccccc2)c1` (stereo not shown) [Example 14, [5-Methyl-2-(2H-1,2,3-triazol-2-yl)phenyl][2-(phenylethynyl)piperidin-1-yl]methanone] were, in that order, 441 nM and 357 nM.
On the same counts, the results for `Cc1ccc(-n2nccn2)c(C(=O)N2CCCCC2C#Cc2ccc(F)cn2)c1` (stereo not shown) [Example 15, 5-fluoro-2-[(1-{[5-methyl-2-(2H-1,2,3-triazol-2-yl)phenyl]carbonyl}piperidin-2-yl)ethynyl]pyridine] are 1000 nM and over 2540 nM.
For the compound `Cc1ccc(-n2nccn2)c(C(=O)N2CCCCC2C#Cc2ccc(F)cc2)c1` (stereo not shown) [Example 16, 2-[(4-fluorophenyl)ethynyl]-1-{[5-methyl-2-(2H-1,2,3-triazol-2-yl)phenyl]carbonyl}piperidine], the Ki at human orexin-2 receptor is 160 nM; at hOX1 (orexin-1 receptor) it was 248 nM.
On the same counts, the results for `Cc1ccc(-n2nccn2)c(C(=O)N2CCCCC2C#Cc2ccc3ccccc3n2)c1` (stereo not shown) [Example 17, 2-[(1-{[5-methyl-2-(2H-1,2,3-triazol-2-yl)phenyl]carbonyl)piperidin-2-yl)ethynyl]quinoline] are over 4460 nM and 332 nM.
The like results for `Cc1ccc(-n2nccn2)c(C(=O)N2CCCCC2C#Cc2cnc3ccccc3c2)c1` (stereo not shown) [Example 18, 3-[(1-{[5-methyl-2-(2H-1,2,3-triazol-2-yl)phenyl]carbonyl}piperidin-2-yl)ethynyl]quinoline] were, in that order, over 4460 nM and over 476 nM.
The like results for `Cc1ccc(-n2nccn2)c(C(=O)N2CCCCC2C#Cc2ccc3ccccc3c2)c1` (stereo not shown) [Example 19, 1-{[5-methyl-2-(2H-1,2,3-triazol-2-yl)phenyl]carbonyl}-2-(naphthalen-2-ylethynyl)piperidine] were, in that order, 2830 nM and over 476 nM.
On to `Cc1nc(C(=O)N2CCCCC2C#Cc2ccccc2)c(-c2ccccc2)s1` (stereo not shown) [Example 20, (2-Methyl-5-phenyl-1,3-thiazol-4-yl) [2-(phenylethynyl)piperidin-1-yl]methanone], for which the Ki on human orexin-2 receptor was over 1170 nM; at hOX1 (orexin-1 receptor), 257 nM.
On to `Cc1nc(C(=O)N2CCCCC2C#Cc2ccc3ccccc3c2)c(-c2ccccc2)s1` (stereo not shown) [Example 21, 1-[(2-methyl-5-phenyl-1,3-thiazol-4-yl)carbonyl]-2-(naphthalen-2-ylethynyl)piperidine], for which the Ki was over 754 nM on human orexin-2 receptor and over 1600 nM on hOX1 (orexin-1 receptor).
